In patent US20140275090A1, “BILE ACID RECYCLING INHIBITORS FOR TREATMENT OF PRIMARY SCLEROSING CHOLANGITIS AND INFLAMMATORY BOWEL DISEASE” (Lumena Pharmaceuticals, Inc., priority 2013, published 2014):

Key:
[1] = system: Hepatic HMG-CoA Reductase; assay: Hepatic HMG-CoA reductase activity assay, hamster liver microsomes; format: in vivo, golden Syrian hamster; conditions: 28 days
Excerpt: Male golden Syrian hamsters (126-147 gm) were obtained from Charles Rivers Laboratories and were single housed in a constant temperature environment with alternating 12-hour light and dark cycles. Hamsters were fed Teklad 7001 rodent meal chow at libitum for two weeks before the experimental studies began and switched to Teklad 7001 rodent meal chow supplemented with 0.24% cholesterol on day one of the 28-day experiment. Water was continuously available to the animals. Hamsters were assigned to groups in a manner that normalized each group by pretreatment body weights. SD-5613 was dissolved in an aqueous solution of 0.2% (w/v) Tween 80 and administered Q.D. by intragastric gavage between 9 a.m. and 10 a.m. each morning using a syringe fitted with a flexible feeding tube. Blood samples were collected after 14- and 28-day treatment periods by orbital sinus and cardiac puncture, respectively. Hamsters were anesthetized but not fasted prior to blood collections. Fecal samples were collected during a 48-hour period at the end of days 14 and 28 (i.e. days 13-14 and 27-28). Hamsters were sacrificed using carbon dioxide asphyxiation to obtain the following tissue samples: liver, kidneys, colon and cecum.
Homogenates of three gram liver tissue samples were prepared in 25 ml homogenization buffer [0.1 M potassium phosphate buffer, pH 7.2, containing 0.1 M sucrose, 50 mM KCl, 50 mM NaF, 5 mM ethylene glycol-bis(β-aminoethyl ether)-N,N,N′,N′-tetraacetic acid (EGTA), 1 mM EDTA, 3 mM dithiothreitol (DTIT), and 1 mM phenylmethylsulfonyl fluoride (PMSF)]. A microsomal fraction was prepared by centrifugation at 10,000×g for ten minutes. The supernatant was subjected to centrifugation at 105,000×g for two hours. The microsomal fraction was resuspended in a 0.1 M Na tetrapyrophosphate buffer (pH 10), with 50 mM NaF, and 1 mM EDTA, and subjected to centrifugation for one hour at 105,000×g. The microsomal fraction was resuspended in the homogenization buffer, and assayed for protein content by Coomassie Protein Plus Assay reagent.
Microsomes (200 μg) were preincubated for 15 minutes at 37° C. in a total volume of 225 μl buffer containing 0.1 M potassium phosphate (pH 7.4), 10 mM imidazole, 5 mM DTT, 10 mM EDTA, 3 mM NADP, 12 mM glucose-6-phosphate and 1 unit glucose-6-phosphate dehydrogenase (catalog number G4134, Sigma, St. Louis). The HMG-CoA reductase assay was initiated by the addition of 9 nmoles (0.5 μCi). DL-[-3^14C]-HMG-CoA (final assay volume was DL-3-[^14C]-250 μl). The mixture was incubated for 60 minutes at 37° C. after which the assay was stopped with 25 μl of 6 N HCl. [^3H]Mevalonic acid (0.1 μCi), used as an internal standard to correct for incomplete recovery, was added to the reaction mixture along with 3 mg of unlabeled mevalonic acid lactone. The mixture was then incubated for an additional 30 minutes at 37° C. The [^14C]mevalonate that was formed and converted into mevalonic acid lactone during both incubations was isolated by thin layer chromatography. Each lane was scraped into 3 ml of InstaGel XF (Packard, Meriden, Conn.) and read on a Beckman Scintillator Counter. Reagents unless noted otherwise were obtained from Sigma, St. Louis, Mo. Isotopes were obtained from NEN Life Science Products, Boston, Mass.

[2] = Open-label single-dose [14C]LUM001 oral solution study: radioactivity in plasma, whole blood, urine, feces; format: in vivo, human; conditions: for Radioactive Concentration, Plasma / Radioactive Concentration, Whole Blood: 5 mg [14C]LUM001 oral solution
Procedure: This was an open-label, one-period, single-dose study of a [^14C]LUM001 oral solution. Eight healthy male subjects received an oral solution of 5 mg [^14C]LUM001 (containing approximately […] per dose). Blood samples were collected at predose and for 72 hours postdose, urine samples were collected predose and for 168 hours postdose and feces were collected predose and for 216 hours postdose. Plasma, whole blood, urine and fecal samples were analyzed for total radioactivity, and selected fecal samples were analyzed for LUM001 and relevant metabolite concentrations. In addition, metabolic profiles in selected fecal samples were obtained using high performance liquid radio chromatography (HPLRC).

[3] = Toxicokinetics of LUM001 free form, 13-week oral gavage toxicity study in rats; format: in vivo; conditions: plasma; rat, after IV administration of 3 mg/kg; read-out: AUC(0-24 h)

SMILES: CCCCC1(CCCC)CS(=O)(=O)c2ccc(N(C)C)cc2[C@@H](c2ccc(OCc3ccc(C[N+]45CCN(CC4)CC5)cc3)cc2)[C@H]1O [LUM001]
- Hepatic HMG-CoA Reductase ([1]; 5 mg/kg/day): 4.6 ± 0.4 pmol/mg-protein/min
- Hepatic HMG-CoA Reductase, % change from vehicle group ([1]; 5 mg/kg/day): (+31) %
- Hepatic HMG-CoA Reductase ([1]; 15 mg/kg/day): 16 ± 4 pmol/mg-protein/min
- Hepatic HMG-CoA Reductase, % change from vehicle group ([1]; 15 mg/kg/day): (+346) %
- Hepatic HMG-CoA Reductase ([1]; 50 mg/kg/day): 17 ± 4 pmol/mg-protein/min
- Hepatic HMG-CoA Reductase, % change from vehicle group ([1]; 50 mg/kg/day): (+389) %
- Radioactive Concentration, Plasma ([2]; 0.5 hr): BLQ
- Radioactive Concentration, Plasma ([2]; 1 hr): BLQ
- Radioactive Concentration, Whole Blood ([2]; 1 hr): 0.000 ng equivalents/g
- Radioactive Concentration, Plasma ([2]; 1.5 hr): BLQ
- Radioactive Concentration, Plasma ([2]; 2 hr): BLQ
- Radioactive Concentration, Plasma ([2]; 2.5 hr): BLQ
- Radioactive Concentration, Plasma ([2]; 3 hr): BLQ
- Radioactive Concentration, Plasma ([2]; 4 hr): BLQ
- Radioactive Concentration, Whole Blood ([2]; 4 hr): 0.000 ng equivalents/g
- Radioactive Concentration, Plasma ([2]; 6 hr): BLQ
- Radioactive Concentration, Plasma ([2]; 8 hr): BLQ
- Radioactive Concentration, Plasma ([2]; 12 hr): BLQ
- Radioactive Concentration, Plasma ([2]; 16 hr): 0.000 ng equivalents/mL
- Radioactive Concentration, Plasma ([2]; 24 hr): BLQ
- Radioactive Concentration, Plasma ([2]; 36 hr): 0.000 ng equivalents/mL
- Radioactive Concentration, Plasma ([2]; 48 hr): BLQ
- Radioactive Concentration, Plasma ([2]; 60 hr): BLQ
- Radioactive Concentration, Plasma ([2]; 72 hr): BLQ
- Radioactive Concentration, Whole Blood ([2]; −0.5 hr): 0.000 ng equivalents/g
- Percent of Dose ([2]; analyte in feces, mean): 65.0 ± 3.1%
- Cumulative % of Total Dose, Total (Urine and Feces) ([2]; radioactivity): 72.532%
- Cumulative % of Total Dose, Urine ([2]; radioactivity, 0-2 hr): 0.005%
- Cumulative % of Total Dose, Feces ([2]; radioactivity, 0-24 hr): 30.376%
- Cumulative % of Total Dose, Urine ([2]; radioactivity, 2-4 hr): 0.012%
- Cumulative % of Total Dose, Urine ([2]; radioactivity, 4-8 hr): 0.028%
- Cumulative % of Total Dose, Urine ([2]; radioactivity, 8-12 hr): 0.041%
- Cumulative % of Total Dose, Urine ([2]; radioactivity, 12-24 hr): 0.058%
- Cumulative % of Total Dose, Feces ([2]; radioactivity, 24-48 hr): 49.878%
- Cumulative % of Total Dose, Urine ([2]; radioactivity, 24-48 hr): 0.057%
- Cumulative % of Total Dose, Feces ([2]; radioactivity, 48-72 hr): 67.630%
- Cumulative % of Total Dose, Urine ([2]; radioactivity, 48-72 hr): 0.062%
- Cumulative % of Total Dose, Feces ([2]; radioactivity, 72-96 hr): 69.653%
- Cumulative % of Total Dose, Urine ([2]; radioactivity, 72-96 hr): 0.063%
- Cumulative % of Total Dose, Feces ([2]; radioactivity, 96-120 hr): 71.606%
- Cumulative % of Total Dose, Urine ([2]; radioactivity, 96-120 hr): 0.063%
- Cumulative % of Total Dose, Feces ([2]; radioactivity, 120-144 hr): 71.771%
- Cumulative % of Total Dose, Urine ([2]; radioactivity, 120-144 hr): 0.064%
- Cumulative % of Total Dose, Feces ([2]; radioactivity, 144-168 hr): 71.815%
- Cumulative % of Total Dose, Urine ([2]; radioactivity, 144-168 hr): 0.066%
- Cumulative % of Total Dose, Feces ([2]; radioactivity, 168-192 hr): 71.885%
- Cumulative % of Total Dose, Feces ([2]; radioactivity, 192-216 hr): 71.885%
- Cumulative % of Total Dose, Feces ([2]; radioactivity, incl. Toilet Paper (cumulative recovery from first five fecal samples)): 72.466%
- AUC(0-t) [3]: 4320 ng·h/mL
